IC50 and MIC data for four compounds are collected here from ChEMBL document CHEMBL1671659, “In vitro and in vivo properties of dihydrophthalazine antifolates, a novel family of antibacterial drugs” (Antimicrob Agents Chemother, 2009).

Converted amounts (≈) assume the structure as drawn.

A short description of experiment [1]: Inhibition of trimethoprim-resistant Staphylococcus aureus Type S1 dihydrofolate reductase.
Experiment [2] concerns Staphylococcus aureus. In words: Antibacterial activity against vancomycin, trimethoprim, methicillin-resistant Staphylococcus aureus VRS1 harboring dfrA and dfrB genes. It counts as functional.
Experiment [3] is described as follows: Inhibition of trimethoprim-sensitive Staphylococcus aureus DfrB type dihydrofolate reductase.
Experiment [4] relates to Staphylococcus epidermidis. In words: Antibacterial activity against methicillin, vancomycin, trimethoprim-sensitive Staphylococcus epidermidis ATCC 14990 harboring dfrC gene. Format: functional.
The test system of experiment [5] is Staphylococcus aureus. In words: Antibacterial activity against methicillin, vancomycin, trimethoprim-sensitive Staphylococcus aureus ATCC 29213 harboring dfrB gene. Format: functional.
Experiment [6] has as its target Dihydrofolate reductase (Staphylococcus aureus, UniProt P0A017, F99Y). In words: Inhibition of trimethoprim-resistant Staphylococcus aureus DfrB type dihydrofolate reductase F98Y mutant.
For experiment [7], the system named is Staphylococcus aureus. In words: Antibacterial activity against vancomycin, trimethoprim-sensitive and methicillin-resistant Staphylococcus aureus ATCC 43300 harboring dfrB gene. It counts as functional.
Experiment [8] has as its system Staphylococcus epidermidis. In words: Antibacterial activity against methicillin, vancomycin-sensitive and trimethoprim-resistant Staphylococcus epidermidis BAS000635 harboring dfrC and dfrA genes. Format: functional.

One may read the IC50 as the point on the concentration scale where inhibition reaches its midpoint. The MIC is the least concentration at which growth counts as inhibited. Higher therefore signals a need for much substance. Take `COc1ncc([C@@H]2c3ccccc3C=NN2C(=O)/C=C/c2cc(Cc3cnc(N)nc3N)cc(OC)c2OC)cn1`: the IC50 in experiment [1] came to 1330 nM; in experiment [3] it was 12.5 nM; in experiment [6] it was 1150 nM. In addition, the MIC in experiment [2] was more than 8 µg/mL; in experiment [4], 0.5 µg/mL (≈ 0.905 µM); in experiment [5], 2 µg/mL (≈ 3.62 µM); in experiment [7] it was 1 µg/mL (≈ 1.81 µM); in experiment [8], more than 8 µg/mL.

Regarding `COc1cc(Cc2cnc(N)nc2N)cc(/C=C/C(=O)N2N=Cc3ccccc3[C@@H]2c2cnc(N3CCOCC3)nc2)c1OC`, the IC50 was 98 nM in experiment [1], 8.9 nM in experiment [3] and 64.4 nM in experiment [6]. Moreover, the MIC in experiment [2] was determined as 2 µg/mL (≈ 3.29 µM); in experiment [4], 0.25 µg/mL (≈ 0.411 µM); in experiment [5] it was 1 µg/mL (≈ 1.65 µM); in experiment [7] it was 1 µg/mL (≈ 1.65 µM); in experiment [8] it was 2 µg/mL (≈ 3.29 µM).

As for `COc1cc(Cc2cnc(N)nc2N)cc(/C=C/C(=O)N2N=Cc3ccccc3[C@H]2c2cnc(N3CCOCC3)nc2)c1OC`, the IC50 in experiment [1] was 2590 nM; in experiment [3], 46.8 nM; in experiment [6], 5700 nM. The MIC in experiment [2] was more than 8 µg/mL; in experiment [4], 1 µg/mL (≈ 1.65 µM); in experiment [5], 4 µg/mL (≈ 6.58 µM); in experiment [7], 2 µg/mL (≈ 3.29 µM); in experiment [8], more than 8 µg/mL.

For `COc1cc(Cc2cnc(N)nc2N)cc(/C=C/C(=O)N2N=Cc3ccccc3[C@@H]2c2cnc(N(C)C)nc2)c1OC`, the IC50 is 35.1 nM in experiment [1], 9.2 nM in experiment [3] and 40.9 nM in experiment [6]. Also, the MIC in experiment [2] was 2 µg/mL (≈ 3.54 µM); in experiment [4] it was 0.25 µg/mL (≈ 0.442 µM); in experiment [5], 0.5 µg/mL (≈ 0.884 µM); in experiment [7], 0.5 µg/mL (≈ 0.884 µM); in experiment [8], 2 µg/mL (≈ 3.54 µM).
